Consider 33 molecules from patent US9212182B2, “Bicyclic sulfonamide compounds as sodium channel inhibitors” (AMGEN INC., priority 2013, dated 2015).

Structures are written as SMILES.

Nav 1.7, sequence (Q15858 whole entry): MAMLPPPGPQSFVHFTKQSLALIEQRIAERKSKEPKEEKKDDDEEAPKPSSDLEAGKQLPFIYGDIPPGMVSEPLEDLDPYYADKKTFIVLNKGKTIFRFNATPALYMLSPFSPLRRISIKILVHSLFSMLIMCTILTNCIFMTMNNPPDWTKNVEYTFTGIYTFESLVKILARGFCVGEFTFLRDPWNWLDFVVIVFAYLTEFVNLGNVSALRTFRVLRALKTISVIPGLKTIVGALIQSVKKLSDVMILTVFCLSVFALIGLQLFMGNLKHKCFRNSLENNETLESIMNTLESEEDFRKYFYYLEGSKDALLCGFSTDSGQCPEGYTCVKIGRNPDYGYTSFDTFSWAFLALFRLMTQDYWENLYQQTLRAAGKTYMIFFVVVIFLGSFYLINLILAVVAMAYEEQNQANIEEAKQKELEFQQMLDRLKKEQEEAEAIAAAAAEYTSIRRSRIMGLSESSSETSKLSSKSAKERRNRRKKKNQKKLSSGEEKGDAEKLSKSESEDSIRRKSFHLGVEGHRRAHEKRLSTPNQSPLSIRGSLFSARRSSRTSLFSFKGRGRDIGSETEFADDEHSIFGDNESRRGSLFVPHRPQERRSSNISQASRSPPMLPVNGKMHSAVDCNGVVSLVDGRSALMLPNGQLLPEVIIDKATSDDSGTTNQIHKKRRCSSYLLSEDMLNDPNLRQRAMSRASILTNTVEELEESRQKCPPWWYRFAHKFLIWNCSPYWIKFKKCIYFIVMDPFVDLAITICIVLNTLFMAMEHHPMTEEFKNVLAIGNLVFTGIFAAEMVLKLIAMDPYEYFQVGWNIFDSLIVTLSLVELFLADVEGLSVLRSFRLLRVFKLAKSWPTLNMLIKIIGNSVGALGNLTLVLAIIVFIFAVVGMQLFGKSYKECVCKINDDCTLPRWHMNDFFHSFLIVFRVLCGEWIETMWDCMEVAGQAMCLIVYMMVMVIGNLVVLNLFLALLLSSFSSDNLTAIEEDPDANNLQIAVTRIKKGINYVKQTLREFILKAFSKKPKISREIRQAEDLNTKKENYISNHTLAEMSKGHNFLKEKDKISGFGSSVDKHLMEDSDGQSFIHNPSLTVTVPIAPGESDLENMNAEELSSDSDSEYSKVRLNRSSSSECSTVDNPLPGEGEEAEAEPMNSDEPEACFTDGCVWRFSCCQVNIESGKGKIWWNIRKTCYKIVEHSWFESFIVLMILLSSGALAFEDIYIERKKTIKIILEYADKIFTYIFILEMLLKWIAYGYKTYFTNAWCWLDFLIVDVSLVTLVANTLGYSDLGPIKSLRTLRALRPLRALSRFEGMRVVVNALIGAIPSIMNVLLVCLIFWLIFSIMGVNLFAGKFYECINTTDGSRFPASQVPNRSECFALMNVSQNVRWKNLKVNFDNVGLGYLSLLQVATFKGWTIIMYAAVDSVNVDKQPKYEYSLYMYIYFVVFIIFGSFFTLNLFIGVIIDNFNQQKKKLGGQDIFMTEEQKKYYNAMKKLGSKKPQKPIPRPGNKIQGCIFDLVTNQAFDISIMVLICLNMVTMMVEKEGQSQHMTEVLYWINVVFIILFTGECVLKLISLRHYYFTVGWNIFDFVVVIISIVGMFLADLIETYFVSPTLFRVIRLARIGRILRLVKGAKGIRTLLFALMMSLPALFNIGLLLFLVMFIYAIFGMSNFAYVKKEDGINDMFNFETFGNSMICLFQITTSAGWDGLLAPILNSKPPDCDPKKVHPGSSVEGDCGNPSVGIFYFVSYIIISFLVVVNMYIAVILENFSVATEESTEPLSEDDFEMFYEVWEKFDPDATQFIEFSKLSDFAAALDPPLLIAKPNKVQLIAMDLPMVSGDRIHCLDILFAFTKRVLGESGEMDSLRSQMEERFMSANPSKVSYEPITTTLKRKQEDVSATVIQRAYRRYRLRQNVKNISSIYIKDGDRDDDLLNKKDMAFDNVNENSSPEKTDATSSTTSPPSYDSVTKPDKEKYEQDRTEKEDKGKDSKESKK

The experiment concerns the target Nav 1.7 (Homo sapiens (Human), UniProt Q15858). Briefly: in-vitro Nav 1.7 PX (IC50). The experiment is classed as cell-based. Conditions: in-vitro Nav 1.7 PX data.
As to `COc1nc(OC2CCC2)c(Cl)cc1-n1c(=O)ccc2cc(S(=O)(=O)Nc3ccon3)ccc21` [Example 821, 1-(5-chloro-6-(cyclobutyloxy)-2-methoxy-3-pyridinyl)-N-3-isoxazolyl-2-oxo-1,2-dihydro-6-quinolinesulfonamide], the IC50 stood at 4.66 µM.
`COc1nc(OCC2(C)CC2)c(Cl)cc1-n1c(=O)ccc2cc(S(=O)(=O)Nc3ccon3)ccc21` [Example 822, 1-(5-chloro-2-methoxy-6-((1-methylcyclopropyl)methoxy)-3-pyridinyl)-N-3-isoxazolyl-2-oxo-1,2-dihydro-6-quinolinesulfonamide] gave a concentration for half-maximal inhibition (IC50) of 0.46 µM.
With `COc1cc(-c2cccc(OC(C)C)c2)c(F)cc1-n1c(=O)ccc2cc(S(=O)(=O)Nc3ccon3)ccc21` [Example 823, 1-(2-fluoro-5-methoxy-3′-(1-methylethoxy)-4-biphenylyl)-N-3-isoxazolyl-2-oxo-1,2-dihydro-6-quinolinesulfonamide], the 50% inhibitory concentration (IC50) turned out to be 0.025 µM.
In the case of `COc1nc(OCC2CCCC2)c(Cl)cc1-n1c(=O)ccc2cc(S(=O)(=O)Nc3ccon3)ccc21` [Example 824, 1-(5-chloro-6-(cyclopentylmethoxy)-2-methoxy-3-pyridinyl)-N-3-isoxazolyl-2-oxo-1,2-dihydro-6-quinolinesulfonamide] it was 0.217 µM; in that of `COc1nc(OC2CCCC2)c(Cl)cc1-n1c(=O)ccc2cc(S(=O)(=O)Nc3ccon3)ccc21` [Example 825, 1-(5-chloro-6-(cyclopentyloxy)-2-methoxy-3-pyridinyl)-N-3-isoxazolyl-2-oxo-1,2-dihydro-6-quinolinesulfonamide], 0.33 µM.
The same measure for `COc1cc(-c2cccc(OC(C)C)c2)ccc1-n1c(=O)ccc2cc(S(=O)(=O)Nc3ncco3)ccc21` [Example 826, 1-(3-methoxy-3′-(1-methylethoxy)-4-biphenylyl)-N-1,3-oxazol-2-yl-2-oxo-1,2-dihydro-6-quinolinesulfonamide]: 0.14 µM; for `COc1cc(-c2cccc(OC(C)C)c2)ccc1-n1c(=O)ccc2cc(S(=O)(=O)Nc3ncc(F)cn3)ccc21` [Example 827, N-(5-fluoro-2-pyrimidinyl)-1-(3-methoxy-3′-(1-methylethoxy)-4-biphenylyl)-2-oxo-1,2-dihydro-6-quinolinesulfonamide]: 0.177 µM.
The same measure for `COc1cc(-c2cccc(OC(C)C)c2)ccc1-n1c(=O)ccc2cc(S(=O)(=O)Nc3ncccn3)ccc21` [Example 828, 1-(3-methoxy-3′-(1-methylethoxy)-4-biphenylyl)-2-oxo-N-2-pyrimidinyl-1,2-dihydro-6-quinolinesulfonamide]: 0.613 µM; for `COCCCOc1nc(OC)c(-n2c(=O)ccc3cc(S(=O)(=O)Nc4ccon4)ccc32)cc1Cl` [Example 831, 1-(5-chloro-2-methoxy-6-(3-methoxypropoxy)-3-pyridinyl)-N-3-isoxazolyl-2-oxo-1,2-dihydro-6-quinolinesulfonamide]: 3.81 µM.
Turning to `COc1nc(OCC(F)(F)C(F)(F)F)c(Cl)cc1-n1c(=O)ccc2cc(S(=O)(=O)Nc3ccon3)ccc21` [Example 832, 1-(5-chloro-2-methoxy-6-(2,2,3,3,3-pentafluoropropoxy)-3-pyridinyl)-N-3-isoxazolyl-2-oxo-1,2-dihydro-6-quinolinesulfonamide], half-maximal inhibition (IC50) was put at 0.161 µM.
The same measure for `COc1nc(OCC(F)(F)F)c(Cl)cc1-n1c(=O)ccc2cc(S(=O)(=O)Nc3ccon3)ccc21` [Example 833, 1-(5-chloro-2-methoxy-6-(2,2,2-trifluoroethoxy)-3-pyridinyl)-N-3-isoxazolyl-2-oxo-1,2-dihydro-6-quinolinesulfonamide]: 0.565 µM.
In the case of `COc1ccc(-c2ccc(F)c(C#N)c2)cc1-n1c(=O)ccc2cc(S(=O)(=O)Nc3ccon3)ccc21` [Example 834, 1-(3′-cyano-4′-fluoro-4-methoxy-3-biphenylyl)-N-3-isoxazolyl-2-oxo-1,2-dihydro-6-quinolinesulfonamide] it was 0.294 µM.
In turn, `COc1ccc(-c2ccccc2F)cc1-n1c(=O)ccc2cc(S(=O)(=O)Nc3ccon3)ccc21` [Example 836, 1-(2′-fluoro-4-methoxy-3-biphenylyl)-N-3-isoxazolyl-2-oxo-1,2-dihydro-6-quinolinesulfonamide] displayed a half-inhibitory concentration (IC50) of 0.12 µM.
The same measure for `COc1ccc(-c2ccc(F)cc2F)cc1-n1c(=O)ccc2cc(S(=O)(=O)Nc3ccon3)ccc21` [Example 837, 1-(2′,4′-difluoro-4-methoxy-3-biphenylyl)-N-3-isoxazolyl-2-oxo-1,2-dihydro-6-quinolinesulfonamide]: 0.178 µM; for `COc1cc(F)cc(-c2ccc(OC)c(-n3c(=O)ccc4cc(S(=O)(=O)Nc5ccon5)ccc43)c2)c1` [Example 838, 1-(3′-fluoro-4,5′-dimethoxy-3-biphenylyl)-N-3-isoxazolyl-2-oxo-1,2-dihydro-6-quinolinesulfonamide]: 0.069 µM.
In the case of `COc1ccc(-c2ccc(F)c(F)c2)cc1-n1c(=O)ccc2cc(S(=O)(=O)Nc3ccon3)ccc21` [Example 839, 1-(3′,4′-difluoro-4-methoxy-3-biphenylyl)-N-3-isoxazolyl-2-oxo-1,2-dihydro-6-quinolinesulfonamide] it was 0.113 µM; in that of `COc1ccc(-c2cc(F)ccc2F)cc1-n1c(=O)ccc2cc(S(=O)(=O)Nc3ccon3)ccc21` [Example 840, 1-(2′,5′-difluoro-4-methoxy-3-biphenylyl)-N-3-isoxazolyl-2-oxo-1,2-dihydro-6-quinolinesulfonamide], 0.163 µM.
In the case of `COc1ccc(-c2cccc(Cl)c2)cc1-n1c(=O)ccc2cc(S(=O)(=O)Nc3ccon3)ccc21` [Example 841, 1-(3′-chloro-4-methoxy-3-biphenylyl)-N-3-isoxazolyl-2-oxo-1,2-dihydro-6-quinolinesulfonamide] it was 0.027 µM; in that of `COc1ccc(-c2ccccc2Cl)cc1-n1c(=O)ccc2cc(S(=O)(=O)Nc3ccon3)ccc21` [Example 842, 1-(2′-chloro-4-methoxy-3-biphenylyl)-N-3-isoxazolyl-2-oxo-1,2-dihydro-6-quinolinesulfonamide], 0.072 µM; in that of `COc1ccc(-c2ccc(C(F)(F)F)cc2)cc1-n1c(=O)ccc2cc(S(=O)(=O)Nc3ccon3)ccc21` [Example 843, N-3-isoxazolyl-1-(4-methoxy-4′-(trifluoromethyl)-3-biphenylyl)-2-oxo-1,2-dihydro-6-quinolinesulfonamide], 0.023 µM.
In turn, `COc1ccc(-c2ccc(F)cc2)cc1-n1c(=O)ccc2cc(S(=O)(=O)Nc3ccon3)ccc21` [Example 844, 1-(4′-fluoro-4-methoxy-3-biphenylyl)-N-3-isoxazolyl-2-oxo-1,2-dihydro-6-quinolinesulfonamide] gave a half-maximal inhibitory concentration (IC50) of 0.215 µM.
In the case of `COc1ccc(-c2ccc(Cl)cc2)cc1-n1c(=O)ccc2cc(S(=O)(=O)Nc3ccon3)ccc21` [Example 845, 1-(4′-chloro-4-methoxy-3-biphenylyl)-N-3-isoxazolyl-2-oxo-1,2-dihydro-6-quinolinesulfonamide] it was 0.057 µM; in that of `COc1ccc(-c2ccc(Cl)c(C)c2)cc1-n1c(=O)ccc2cc(S(=O)(=O)Nc3ccon3)ccc21` [Example 846, 1-(4′-chloro-4-methoxy-3′-methyl-3-biphenylyl)-N-3-isoxazolyl-2-oxo-1,2-dihydro-6-quinolinesulfonamide], 0.025 µM.
Consider `COc1cccc(-c2ccc(OC)c(-n3c(=O)ccc4cc(S(=O)(=O)Nc5ccon5)ccc43)c2)c1` [Example 847, 1-(3′,4-dimethoxy-3-biphenylyl)-N-3-isoxazolyl-2-oxo-1,2-dihydro-6-quinolinesulfonamide], for which the midpoint of inhibition, the IC50, lay at 0.403 µM.
In the case of `COc1ccc(-c2cccc(F)c2F)cc1-n1c(=O)ccc2cc(S(=O)(=O)Nc3ccon3)ccc21` [Example 848, 1-(2′,3′-difluoro-4-methoxy-3-biphenylyl)-N-3-isoxazolyl-2-oxo-1,2-dihydro-6-quinolinesulfonamide] it was 0.118 µM; in that of `COc1ccc(-c2ccccc2C(F)(F)F)cc1-n1c(=O)ccc2cc(S(=O)(=O)Nc3ccon3)ccc21` [Example 850, N-3-isoxazolyl-1-(4-methoxy-2′-(trifluoromethyl)-3-biphenylyl)-2-oxo-1,2-dihydro-6-quinolinesulfonamide], 0.141 µM; in that of `COc1ccc(Br)cc1-n1c(=O)ccc2cc(S(=O)(=O)Nc3ccon3)ccc21` [Example 851, 1-(5-bromo-2-methoxyphenyl)-N-3-isoxazolyl-2-oxo-1,2-dihydro-6-quinolinesulfonamide], 0.371 µM.
`COc1ccc(-c2cccc(Cl)c2)cc1-n1c(=O)ccc2cc(S(=O)(=O)Nc3ccon3)ccc21` [Example 852, 1-(3′-chloro-4-methoxy-3-biphenylyl)-N-3-isoxazolyl-2-oxo-1,2-dihydro-6-quinolinesulfonamide] gave an IC50 of 0.022 µM.
In the case of `COc1cc(F)cc(-c2ccc(OC)c(-n3c(=O)ccc4cc(S(=O)(=O)Nc5ccon5)ccc43)c2)c1` [Example 853, 1-(3′-fluoro-4,5′-dimethoxy-3-biphenylyl)-N-3-isoxazolyl-2-oxo-1,2-dihydro-6-quinolinesulfonamide] it was 0.06 µM; in that of `COc1ccc(-c2ccc(C(F)(F)F)cc2)cc1-n1c(=O)ccc2cc(S(=O)(=O)Nc3ccon3)ccc21` [Example 856, N-3-isoxazolyl-1-(4-methoxy-4′-(trifluoromethyl)-3-biphenylyl)-2-oxo-1,2-dihydro-6-quinolinesulfonamide], 0.035 µM.
In the case of `COc1ccc(-c2ccc(Cl)cc2)cc1-n1c(=O)ccc2cc(S(=O)(=O)Nc3ccon3)ccc21` [Example 857, 1-(4′-chloro-4-methoxy-3-biphenylyl)-N-3-isoxazolyl-2-oxo-1,2-dihydro-6-quinolinesulfonamide] it was 0.02 µM.
In the case of `COc1ccc(-c2cc(F)cc(Cl)c2)cc1-n1c(=O)ccc2cc(S(=O)(=O)Nc3ccon3)ccc21` [Example 858, 1-(3′-chloro-5′-fluoro-4-methoxy-3-biphenylyl)-N-3-isoxazolyl-2-oxo-1,2-dihydro-6-quinolinesulfonamide] it was 0.025 µM; in that of `COc1ccc(-c2cc(F)cc(Cl)c2)cc1-n1c(=O)ccc2cc(S(=O)(=O)Nc3ccon3)ccc21` [Example 859, 1-(3′-chloro-5′-fluoro-4-methoxy-3-biphenylyl)-N-3-isoxazolyl-2-oxo-1,2-dihydro-6-quinolinesulfonamide], 0.675 µM.

A word on the IC50: it is the midpoint of a concentration-inhibition curve. High values mean lower potency, low ones higher potency.
